One data set is described as follows: clinical. The settings on record: human, in vivo.
Data set [1] is described as follows: Mass balance study with [14C]vibegron, healthy subjects. Conditions: human plasma, 2 and 4 hr.
Source text: The accumulation potential of circulating metabolites in plasma was not estimated due to insufficient data from later time points to enable estimation of half-life.
A short description of data set [2]: Phase 2b OAB study, adverse events. An excerpt:
A placebo group was included in the main study, and a group that received tolterodine monotherapy was included in the main study and in the extension.

Data set [3] can be described thus: Drug interaction: effect of vibegron on conmed PK. Conditions: human, in vivo, 4 mg.
The nature of data set [4]: Phase 2b OAB study, cardiovascular safety (HR, SBP, DBP, orthostatic AEs). The class given is in vivo, human. The settings on record: 4 mg. An excerpt: None led to discontinuation. The overall incidence of orthostatic symptoms was low.
Small differences in the percent of subjects exceeding categorical heart rate and blood pressure thresholds for vibegron were similar to those in the tolterodine arm.

For data set [5] the following is noted: cited from earlier work.

The text below walks through data of patent US20210196720A1 (UROVANT SCIENCES GMBH, priority 2018, published 2021).

A word on the AUC: it is the area under the concentration-time curve, a measure of exposure. A high value points to more exposure. In turn, `C[C@H]1O[C@@H](O[C@H]2[C@@H](O)C[C@H](O[C@H]3[C@@H](O)C[C@H](O[C@H]4CC[C@@]5(C)[C@H](CC[C@@H]6[C@@H]5C[C@@H](O)[C@]5(C)[C@@H](C7=CC(=O)OC7)CC[C@]65O)C4)O[C@@H]3C)O[C@@H]2C)C[C@H](O)[C@@H]1O` [Digoxin] showed an exposure (AUC) in the data set “clinical” (0.25 mg) of 16.6 ng·h/mL.

As to `C#C[C@]1(O)CC[C@H]2[C@@H]3CCc4cc(O)ccc4[C@H]3CC[C@@]21C` [EE, ethinyl estradiol], in “clinical” (0.03 mg), the AUC was found to be 0.81 ng·h/mL and the Cmax is 0.0719 ng/mL.

Consider `C#C[C@]1(O)CC[C@H]2[C@@H]3CCC4=CC(=O)CC[C@@H]4[C@H]3CC[C@@]21CC` [LNG, levonorgestrel], for which, in “clinical” (0.15 mg), the area under the curve (AUC) was 31 ng·h/mL and the Cmax was 2.07 ng/mL.

For the compound `O=C(O)C1OC(OC(c2ccccc2)C2CCC(Cc3ccc(NC(=O)C4CCc5nccc(=O)n54)cc3)N2)C(O)C(O)C1O` (stereo not shown) [M7], in data set [1], the “share of total circulating drug-related material” value is reported as 12-14%.

With `Cc1ccc(O)c([C@H](CCN(C(C)C)C(C)C)c2ccccc2)c1` [Tolterodine ER, reference compound], the “Discontinuation due to drug-related AE, subjects” value in data set [2] (first 12 weeks, dose group by column) is given as 0 n. The same compound gave a frequency of injuries in data set [2] (human, in vivo) of 2.1%. The compound further displayed a Cmax in data set [3] of 2.28 ng/mL. Besides, in data set [4], the “DBP change from baseline, mean (95% CI) max, week 1 to 8” value is reported as 5.19 (4.26, 6.13) mm Hg; the “DBP change from baseline, mean (95% CI), week 1” value is recorded as −0.12 (−1.10, 0.86) mm Hg; the “HR change from baseline, mean (95% CI) maximum, week 1 to 8” value was 5.66 (4.69, 6.63) bpm; the “HR change from baseline, mean (95% CI), week 1” value is recorded as 0.68 (−0.31, 1.67) bpm. For the same compound, in data set [4], the “SBP change from baseline, mean (95% CI) maximum, week 1 to 8” value is recorded as 7.29 (6.01, 8.57) mm Hg and the “SBP change from baseline, mean (95% CI), week 1” value is 0.04 (−1.36, 1.43) mm Hg.

Consider `O=C(O)c1cccc(-c2cccc(NCCNC[C@H](O)c3cccc(Cl)c3)c2)c1` [solabegron], for which, in data set [5] (Phase IIa, IBS, females), the “number of pain- and discomfort-free days vs placebo” value is reported as “statistically significant increase”. Besides, the clinical benefit result in data set [5] (Phase IIa, IBS, male subjects) is reported as “no clinical benefit”. In data set [5] (healthy volunteers), the “bowel function and plasma somatostatin concentration” value was “no effect”; the “gastrointestinal or colonic transit” value was “did not significantly alter”.
